Consider four molecules from patent US10927125B2, “Substituted cinnolines as inhibitors of KRAS G12C” (Araxes Pharma LLC, priority 2013, dated 2021).

For the test, the target named is T1, KRAS G12C 1-169, his-tagged protein, GDP-loaded (Homo sapiens, UniProt P01116, G12C).
T1 construct: KRAS G12C 1-169, his-tagged protein, GDP-loaded
Kind of test: Biochemical assay: covalent binding of compounds to KRAS G12C, analysed by mass spectrometry. Particulars: binding measured at 30 min (compounds 247-375). The method, then: Compounds were tested for activity as follows:
Compounds were diluted to 50× final test concentration in DMSO in 96-well storage plates. […] Reactions were mixed carefully and thoroughly by pipetting up/down with a 200 μl multi-channel pipettor. The plate was sealed well with aluminum plate seal, and stored in drawer at room temperature for 30 min, 2 hour or 24 hrs. 51 μl of 2% formic acid (Fisher cat # A117) in DI H2O was then added to each well followed by mixing with a pipette. The plate was then resealed with aluminum seal and stored on dry ice until analyzed as described below.
The above described assays were analyzed by mass spectrometry according to the following procedure:
The MS instrument is set to positive polarity, 2 GHz resolution, and low mass (1700) mode and allowed to equilibrate for 30 minutes. The instrument is then calibrated, switched to acquisition mode and the appropriate method loaded.
After another 30 minute equilibration time, a blank batch (i.e., buffer) is run to ensure equipment is operating properly. The samples are thawed at 37° C. for 10 minutes, briefly centrifuged, and transfer to the bench top. Wells A1 and H12 are spiked with 1 uL 500 uM internal standard peptide, and the plates centrifuged at 2000×g for 5 minutes. The method is then run and masses of each individual well recorded.
The masses (for which integration data is desired) for each well are pasted into the platemap and exported from the analysis. Masses for the internal standards are exported as well. The data at 50 ppm is extracted for the +19 charge state, and identity of well A1 is assigned using the internal standard spike and integrated. Peak data is exported as a TOF list and the above steps are repeated individually, for the +20, 21, 22, 23, 24, and 25 charge states.

T1 sequence (P01116 1-169 isoform P01116-2 G12C): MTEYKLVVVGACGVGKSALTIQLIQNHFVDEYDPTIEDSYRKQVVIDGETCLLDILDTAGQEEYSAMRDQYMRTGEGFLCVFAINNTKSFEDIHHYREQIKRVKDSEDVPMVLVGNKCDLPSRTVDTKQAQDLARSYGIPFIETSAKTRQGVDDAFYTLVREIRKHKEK

In the case of `C=CC(=O)N1CCN(c2nc(NC3CCN(C)C3)nc3c(F)c(-c4c(C)ccc5[nH]ncc45)c(Cl)cc23)CC1` (stereo not shown) [Compound 372, 1-(4-(6-chloro-8-fluoro-7-(5-methyl-1H-indazol-4-yl)-2-(1-methylpyrrolidin-3-ylamino)quinazolin-4-yl)piperazin-1-yl)prop-2-en-1-one], the Binding % entry was “+++ (+++ indicates binding activity greater than 50% and up to 75%)”.
In the case of `C=CC(=O)N1CCN(c2nc(OCCN3CCN(C)CC3)nc3c(F)c(-c4c(C)ccc5[nH]ncc45)c(Cl)cc23)CC1` [Compound 373, 1-(4-(6-chloro-8-fluoro-7-(5-methyl-1H-indazol-4-yl)-2-(2-(4-methylpiperazin-1-yl)ethoxy)quinazolin-4-yl)piperazin-1-yl)prop-2-en-1-one] it was “+++ (+++ indicates binding activity greater than 50% and up to 75%)”; in that of `C=CC(=O)N1CCN(c2nc(OCCN(C)C)nc3c(F)c(-c4cc(O)cc5ccccc45)c(Cl)cc23)CC1` [Compound 374, 1-(4-(6-chloro-2-(2-(dimethylamino)ethoxy)-8-fluoro-7-(3-hydroxynaphthalen-1-yl)quinazolin-4-yl)piperazin-1-yl)prop-2-en-1-one], “+++ (+++ indicates binding activity greater than 50% and up to 75%)”; in that of `C=CC(=O)N1CCN(c2nc(Oc3cnn(C)c3)nc3c(F)c(-c4c(C)ccc5[nH]ncc45)c(Cl)cc23)CC1` [Compound 375, 1-(4-(6-chloro-8-fluoro-7-(5-methyl-1H-indazol-4-yl)-2-(1-methyl-1H-pyrazol-4-yloxy)quinazolin-4-yl)piperazin-1-yl)prop-2-en-1-one], “+++ (+++ indicates binding activity greater than 50% and up to 75%)”.
